The conditions of series [1]: cited from earlier work.
Series [2] is described as follows: Solubility of NOBS in selected solvents. In kind it is physicochemical. Conditions: 23° C., grams of NOBS soluble in 100 grams of solution. The text has this:
The solvent properties of TFA are unique and highly advantageous in the synthesis of phenolsulfonate esters. […] It is notable that the only solvent in which NOBS is more soluble than water is TFA. I have found no better solvent for NOBS than TFA. This is surprising. […] It is likely that hydrogen bonding in TFA facilitates the solvation of sulfonate anions but it is notable, in contrast, that such effects are much weaker in acetic acid. Furthermore, while it is known in the art that dimethyl sulfoxide (DMSO) and dimethylformamide (DMF) are relatively good solvents for benzenesulfonate esters they are much weaker solvents than TFA and because TFA has a much lower boiling point than these dipolar aprotic solvents it is the only good solvent for benzenesulfonate esters which can be readily stripped from product solutions and then purified and recycled with relative ease.

`O=C(O)C(F)(F)F` [CF3CO2H, trifluoroacetic acid]: in series [1], the “Aqueous pKa” value is 0.22.
With `CCCCCCCCC(=O)Oc1ccc(S(=O)(=O)[O-])cc1.[Na+]` [NOBS, sodium 4-(nonanoyloxy)benzenesulfonate], the “Solubility of NOBS, wt % NOBS” value in series [2] (solvent DMF) is 10.1 wt %; in series [2] (solvent DMSO) it was 15.9 wt %; in series [2] (solvent NMP), 8.4 wt %; in series [2] (solvent TFA), 23.4 wt %; in series [2] (solvent acetic acid) it was 1.7 wt %; in series [2] (solvent acetone), 0.02 wt %. Further, the figures for the “Solubility of NOBS, wt % NOBS” value in series [2] (solvent acetonitrile), in series [2] (solvent nonanoic acid) and in series [2] (solvent water) were 0.01 wt %, 0.03 wt % and 22.8 wt %, respectively.

The values are drawn from patent US6448431B1, “Production of aryl carboxylate esters” (priority 1999, dated 2002).
